Where “and” joins values, the source holds several entries; their conditions need not be identical. Equal values may be shown once. Read-outs that look alike come from different tables or passages of the source.
How the values were obtained:
[1] = molecular target: T1, BlaC (Mycobacterium tuberculosis, UniProt P9WKD3); test: BlaC fluorogenic inhibition assay with FC5 (dose-response); type: biochemical
T1 construct: made in house; host or cells: E. coli
Description: Two types of controls were used. […] In control 2, the BlaC mixture was substituted with the assay buffer. This mixture was incubated for 30 minutes at room temperature without shaking. […] Data were analysed using ActivityBase (IDBS).

[2] = molecular target: T2, LdtMt2 (Mycobacterium tuberculosis, UniProt I6Y9J2); test: biochemical; type: biochemical; parameters: made in house; host or cells: E. coli
T2 sequence (I6Y9J2 56-408): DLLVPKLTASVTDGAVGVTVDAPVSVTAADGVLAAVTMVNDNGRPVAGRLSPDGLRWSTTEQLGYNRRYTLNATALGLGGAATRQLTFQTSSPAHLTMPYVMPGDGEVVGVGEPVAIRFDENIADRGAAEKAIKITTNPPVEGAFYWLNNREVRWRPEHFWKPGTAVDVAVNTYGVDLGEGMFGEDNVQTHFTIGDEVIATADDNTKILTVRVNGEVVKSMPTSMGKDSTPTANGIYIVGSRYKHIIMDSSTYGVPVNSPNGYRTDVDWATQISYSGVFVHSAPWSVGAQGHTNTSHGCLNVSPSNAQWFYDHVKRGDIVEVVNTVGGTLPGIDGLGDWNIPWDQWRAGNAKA

[3] = molecular target: T2, LdtMt2; test: Rate constant of covalent target inactivation (kinact/KI), endpoint competition assay with probe 2; type: biochemical; parameters: made in house; host or cells: E. coli; conditions: 100 nM LdtMt2, 10 µM probe 2, 3 h incubation; n=4
[4] = molecular target: T2, LdtMt2; test: biochemical; type: binding; parameters: made in house; host or cells: E. coli
Description: LdtMt2 (5 μM) was incubated with the inhibitor (500 μM) in assay buffer (50 mM tris pH 7.5) for 30 minutes at room temperature in 96-well white PCR plates (25 μL final volume, Starlab). SYPRO Orange (final concentration 6×, according to manufacturer's definition, Invitrogen) was then added and the plate was sealed using a transparent plastic film (Polyolefin StarSeal, Starlab). Fluorescence was monitored (with λex = 492 nm and λem = 610 nm) using a CFX96 Touch Real-Time PCR Detection System (Bio-Rad), while the temperature was increased from 20 to 95 °C in increments of 0.2 °C. Melting temperatures (Tms) were determined using the CFX Maestro Software (Bio-Rad).

[5] = Table S3 tool compounds, 10 min incubation, 2.5 nM BlaC, 2.5 µM FC5, n=4, read-out: pIC50 BlaC (mean ± SD) (converted)
[6] = Table S4 HTS validation, 30 minutes inhibitor pre-incubation, n=6, read-out: pIC50 LdtMt2 (mean ± SD) (converted)
[7] = Table S4 HTS validation, 30 minutes inhibitor pre-incubation, n=8, read-out: pIC50 BlaC (mean ± SD) (converted)
[8] = Table S5 HTS hits, 30 minute inhibitor pre-incubation, two independent repeats

T1 sequence (P9WKD3 35-307): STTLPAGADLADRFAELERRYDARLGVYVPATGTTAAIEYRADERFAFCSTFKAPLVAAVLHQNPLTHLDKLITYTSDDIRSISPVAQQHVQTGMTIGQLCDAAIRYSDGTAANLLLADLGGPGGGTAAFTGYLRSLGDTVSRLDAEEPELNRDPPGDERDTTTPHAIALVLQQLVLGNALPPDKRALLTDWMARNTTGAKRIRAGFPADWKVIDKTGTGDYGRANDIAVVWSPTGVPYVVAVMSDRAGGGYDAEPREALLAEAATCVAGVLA

Compound | IC50 [1, 5] [µM] | IC50 ([2]; pIC50 LdtMt2 (mean ± SD)) [µM] | ΔTm: difference in melting point of LdtMt2 relative to unreacted LdtMt2 (43.8 °C) [4] | LE (ligand efficiency) [2] | Tm: melting point of LdtMt2 after pre-incubation with the compound ([4]; pH 7.5, in °C (unit assumed)) | other results
O=[Se](O)c1ccccc1 [Benzeneseleninic acid, reference compound] | > 100 | 10 | – | – | – | IC50 [2, 6]: 3.55 µM
C[C@@H](O)[C@H]1C(=O)N2C(C(=O)[O-])=C(SC3Cn4cnc[n+]4C3)[C@H](C)[C@H]12 (stereo partly drawn) [Biapenem, reference compound] | 3.09 | 79.4 | – | – | – | IC50 [1, 7]: 0.479 µM; IC50 [2, 6]: 2.88 µM
CC1(C)S[C@@H]2[C@H](NC(=O)C(C(=O)O)c3ccccc3)C(=O)N2[C@H]1C(=O)O (stereo partly drawn) [Carbenicillin, reference compound] | > 100 | > 100 | – | – | – | –
CO/N=C(\C(=O)N[C@@H]1C(=O)N2C(C(=O)O)=C(COC(C)=O)CS[C@H]12)c1csc(N)n1 [Cefotaxime, reference compound] | > 100 | > 100 | – | – | – | –
CC(C)(O/N=C(\C(=O)N[C@@H]1C(=O)N2C(C(=O)[O-])=C(C[n+]3ccccc3)CS[C@H]12)c1csc(N)n1)C(=O)O [Ceftazidime] | 39.8 | > 100 | – | – | – | IC50 [1, 7]: 12 µM
CO/N=C(\C(=O)N[C@@H]1C(=O)N2C(C(=O)O)=C(CSC(=O)c3ccco3)CS[C@H]12)c1csc(N)n1 [Ceftiofur, reference compound] | > 100 | > 100 | – | – | – | –
CC(C)(C)OC(=O)Nc1ccc(N2C(=O)C=CC2=O)cc1 [Compound 6] | – | – | +1.7 °C | 0.52 | – | kinact/KI [3]: 127 ± 7.7 M⁻¹ s⁻¹; Tm: melting point of LdtMt2 after pre-incubation with the compound ([4]; pH 7.5): 45.5 ± 0.09 °C
Cc1ccc(C=CC(=O)Nc2ccc(S(N)(=O)=O)cc2)o1 [Compound 9] | – | – | – | 0.53 | – | kinact/KI [3]: 90.7 ± 4.7 M⁻¹ s⁻¹; Tm: melting point of LdtMt2 after pre-incubation with the compound ([4]; pH 7.5): 43.1 ± 0.09 °C
Cc1ccc(C=CC(=O)N2CC(=O)Nc3ccccc32)o1 [Compound 10] | – | – | – | 0.54 | – | –
Cc1ccccc1NC(=O)C=CC(N)=O [Compound 14] | – | – | +1.1 | 0.75 | 44.9 ± 0.09 | pIC50 BlaC [1, 8]: < 4.0
Cn1c(SCC2=C(C(=O)O)N3C(=O)[C@@H](NC(=O)COc4ccccc4)[C@H]3SC2)n[nH]c1=O [Compound 19] | – | – | – | – | – | IC50 ([1]; Table S5 HTS hits, 30 minute inhibitor pre-incubation, two independent repeats, read-out: pIC50 BlaC (converted)): > 100 µM; Tm: melting point of LdtMt2 after pre-incubation with the compound ([4]; 5 µM LdtMt2, 500 µM inhibitor, SYPRO Orange, 50 mM Tris pH 7.5): 42.9 ± 0.09 °C; ΔTm at 500 µM ([4]; read-out: ΔTm: difference in melting point of LdtMt2 relative to unreacted LdtMt2 (43.8 °C)): -0.9 °C; LE (ligand efficiency) ([2]; Table S5, for LdtMt2): 0.35; IC50 ([2]; Table S5 HTS hits, 30 minute inhibitor pre-incubation, two independent repeats, read-out: pIC50 LdtMt2 (converted)): 2.4 µM and 2.4 to 2.82 µM
COc1ccc(COC(=O)C2N3C(=O)C(Br)C3S(=O)(=O)C2(C)C)cc1 (stereo not drawn) [Compound 21] | – | – | -0.7 | 0.45 | 43.1 ± 0.09 | kinact/KI [3]: 53.2 ± 4.7 M⁻¹ s⁻¹
N#Cn1c(N2CCSCC2)nc2ccccc21 [Compound 27] | – | – | -1.3 | 0.66 | 42.5 ± 0.09 | pIC50 BlaC [1, 8]: < 4.0
N#Cn1c(N2CCOCC2)nc2ccccc21 [Compound 28] | – | – | -1.5 | 0.66 | 42.3 ± 0.09 | pIC50 BlaC [1, 8]: < 4.0
N#Cn1c(-c2ccncc2)nc2ccc(-c3cccnc3)cc21 [Compound 35] | – | – | -0.9 | 0.49 | 42.9 ± 0.34 | –
CNC(C)C(=O)NC1CCN(c2ccc(N3CCCC3)cc2C#N)C1 (stereo not drawn) [Compound 38] | – | – | -1.0 | 0.45 | 42.8 ± 0.00 | pIC50 BlaC [1, 8]: < 4.0
N#Cn1ccnc1 [Compound 41, reference compound] | – | – | – | – | – | pIC50 LdtMt2 [2]: 6.54 ± 0.01
N#Cn1nnc2ccccc21 [Compound 42, reference compound] | – | – | – | – | – | pIC50 LdtMt2 [2]: 6.02 ± 0.05

Source: article PMC10321483 (Chemical Science, 2023)
